According to patent US20080015251A1, “Means and method for treating lipotoxicity and other metabolically related phenomena” (Yissum Research Development Co., of The Hebrew University …, priority 2006, published 2008):
“Also recorded” adds a separate entry of the source. Marks after values point to notes of the source that are not given here.

Experiments:
J774.2 macrophages [1] = test: Cell viability by propidium iodide exclusion (membrane integrity), flow cytometry; assay type: cell-based, Murine; conditions: for protection against TG-induced lipotoxicity (rate of cell death): AA 0.5 mM, resv 0.2 mM, querc 0.2 mM, lyc 10 AM, carot 10 AM, toc 0.2 mM, LA 0.25 mM, Se 1 AM (FIG. 8A)
Description: Murine J774.2 macrophages were cultured in RPMI medium enriched with 10% fetal calf serum, 1% glutamine, and 1% penicillin-streptomycin. […] Prior to experimental procedures, macrophages were seeded on 6-well plates at a concentration of 50,000 cells/ml.
The physiological range of TG in plasma is up to 1.5 mg/ml. […] Other agents, such as antioxidants or cycloheximide (CH), were added as specified in the relevant figure legends.
Cell membrane integrity was detected as previously described. Briefly, cells were stained with 2 Ag/ml propidium iodide (PI) and measured by flow cytometry, (FACS Calibur, Becton Dickinson, Calif.) at the following fluorescence setting: excitation at 488 nm and emission at 575 nm. Data were collected from 10,000 cells.

rat isolated hepatocytes [2] = test: Reduced glutathione (GSH) by HPLC; assay type: cell-based
Description: GSH was measured using HPLC (15). […] Detection was made by an electrochemical detector. The results were adjusted to protein levels of the samples.

rat isolated hepatocytes [3] = test: Nitrite in culture media (Griess reaction); assay type: cell-based; conditions: for effect on LE inhibition of nitrite levels: 0.1% LE, NAC 3 mmol/L, ascorbate 3 mmol/L, resveratrol 600 μmol/L
Description: (§1) Rotenone, S nitroso-N-acetyl-penicillamine (SNAP), buthionine sulfoximine (BSO), anti oxidants, or TNF-α were added to the culture medium in specific experiments. At the end of the experiment, the medium was collected and the cells were harvested for further assays.
Nitrite in culture media was measured by the Griess reaction (21). The values obtained were compared with standards of sodium nitrite dissolved in the cell culture media.

J774.2 macrophages [4] = test: Intracellular ROS, H2DCF-DA fluorescent probe, FACS; assay type: cell-based, Murine; conditions: for ROS production in TG-treated cells: 0.1% LE 24 h, rotenone 40 AM added 5 min before probe, FCCP 15 min (FIG. 2B)
Description: Murine J774.2 macrophages were cultured in RPMI medium enriched with 10% fetal calf serum, 1% glutamine, and 1% penicillin-streptomycin. Cells were maintained in an incubator with temperature (378C) and CO2 (5%) control. Prior to experimental procedures, macrophages were seeded on 6-well plates at a concentration of 50,000 cells/ml.
LE was added to the cell culture at a concentration of 0.1% (w/v) TG (1 mg lipids/ml). The physiological range of TG in plasma is up to 1.5 mg/ml. The cells were incubated with the LE for 12, 24, or 48 h, and then washed twice with phosphate-buffered saline (PBS), and intracellular ROS and cell viability were measured. Other agents, such as antioxidants or cycloheximide (CH), were added as specified in the relevant figure legends.
Intracellular ROS were detected using a H2DCF-DA fluorescent probe. The cells were incubated with 25 AMH2DCF-DA for 30 min at room temperature. The fluorescence was measured in a FACS, with excitation at 488 nm and emission at 530 nm. Data were collected from 10,000 cells.

caspase-3 = test: Caspase-3 (DEVDase) activity, Ac-DEVD-AMC substrate; assay type: cell-based, Murine; conditions: pretreatment for 24 h with CH (FIG. 6)
Description: For analysis of caspase activity, cells were incubated for 2 h in ice-cold PBS containing 0.5% Triton X-100 and 5 mM dithiothreitol (DTT). The suspension of permeabilized cells was agitated slightly and centrifuged at 14,000 g. The clear supernatant was tested for caspase-3 activity as previously described, using the caspase-3 substrate Ac-DEVD-AMC (Calbiochem, Darmstadt, Germany). Incubation was conducted in 200 Al of reaction mixture containing approximatelyl mg sample protein, in the dark, at 308 C for 4 h (linear phase of the reaction). Caspase-3 activity was expressed as arbitrary fluorescence units (AU) per mg. protein.

iNOS [5] = test: iNOS protein expression, Western blot; assay type: cell-based, rat; conditions: 0.1% LE, NAC 3 mmol/L, 48 h
Description: (§2) Cells were scraped and lysed in 750 μΛ of lysis buffer (20 mmol/L Tris, pH 7.8; 0.1% Nonidet P-40; 100 mmol/L NaCl; 50 mmol/L NaF; 10% glycerol, 1 mmol/L sodium orthovanadate). Lysates were centrifuged at 8500×g for 10 min. The supernatant was collected and used for the analysis of eNOS and iNOS.
(§3) Protein concentration was determined by the Bradford method (20) using bovine serum albumin as a standard. Samples were boiled for 5 min with SDS sample buffer; 60 μg of protein per sample was loaded onto a 10% SDS-polyacrylamide gel. Electroblots were blocked in Tris buffer NaCl-Tween (TBST) containing 5% skim milk powder at room temperature. Western blot analysis with a specific antibody against iNOS (Biomol), eNOS, p65, and p-c-Jun antibodies (Santa Cruz Biotechnology) was carried out. The antibodies were diluted in TBST buffer+5% skim milk and left overnight at 4° C. After a TBST washing procedure, the blots were incubated with horseradish-peroxidase labeled anti-rabbit antibody (Pierce) for 1 h at room temperature. The immune reaction was detected by enhanced chemiluminescence. Bands were quantified by scanning densitometry and expressed as arbitrary units.

eNOS [6] = test: eNOS protein expression, Western blot; assay type: cell-based, rat; conditions: 0.1% LE, NAC 3 mmol/L, 48 h, data not shown
Description: as §2, §3

iNOS [7] = test: iNOS mRNA level by RT-PCR; assay type: cell-based, rat; conditions: 0.1% LE, NAC 3 mmol/L, 48 h
Description: (§4) Total RNA was prepared using TriReagent. Analyses of mRNA levels of iNOS, eNOS, and gylceraldehyde-3-phosphate dehydrogenase (GAPDH) were performed using RT-PCR. The synthesis of cDNA was carried out using a Reverse-it (ABgene) first-strand synthesis kit. The reaction was conducted at 40-55° C. for 50 min. Finally, the reaction was terminated by incubation at 70° C. for 15 min. PCR amplification was performed in the Biometra T personal cycler instrument (Biometra). Cycles were performed at 94° C. for 30 s followed by 57° C. for 30 s and 72° C. for 30 s. cDNA was incubating with ReddyMix and gene-specific PCR primers, designed using Primer 3 software (Whitehead Institute for Biomedical Research).
(§5) The primers were synthesized by MBC: eNOS, forward primer, 5′-[…]-3′, and reverse primer, 5′-[…]-3′; INOS, forward primer, 5′[…]-3′, and reverse primer, 5′-[…]-3′. As a loading control, RNA was hybridized with a probe of the housekeeping gene, GAPDH, forward primer, 5′-[…]-3′, and reverse primer, 5′-[…]-3′.
(§6) PCR products were electrophoresed on […] gel containing 5 µL ethidium bromide, and the gel image was quantified using Doc-it gel image analysis program (UVP). The number of cycles for all the genes was selected within the linear part of a standard curve.

eNOS [8] = test: eNOS mRNA level by RT-PCR; assay type: cell-based, rat; conditions: 0.1% LE, NAC 3 mmol/L, 48 h
Description: as §4, §5, §6

rat isolated hepatocytes [9] = test: Intracellular ROS, DCF fluorescence, flow cytometer; assay type: cell-based
Description: as §1, with “Isolated hepatocytes were seeded at 2 […]10^9 cells/L; after 4 h, the culture medium was replaced and cells were incubated for 48 h with 0.01-0.1% LE. Rotenone,” for “Rotenone,”
Cell membrane integrity (15), TG accumulation (22), and intracellular ROS levels (23, 24) were detected by flow cytometer (FACScalibur BD). Hepatocytes were stained with 2 mg/L DNA-interchelating dye propidium iodide, which is excluded by viable cells; with 1 mg/L Nile red, which accumulates in intracellular lipid droplets; or with […] dichlorodihydrofluorescein diacetate (H2DCF-DA), a probe that has high reactivity to hydrogen peroxide, lipid hydroperoxide, and hydroxyl radicals and low reactivity to superoxide anions (23,24). Fluorescence settings were as follows: excitation at 488 nm and emission at 575 nm for propidium iodide and Nile red and 488 nm and recorded at 530 nm for H2DCF-DA. Data were collected from 10,000 cells.

[10] = with or without 0.1% LE and BSO, 48 h (Table 6)
[11] = with or without 0.1% LE and rotenone, 48 h (Table 5)

O=C(O)CCCCC1CCSS1 (racemic) [racemic lipoic acid, lipoic acid]
protection against TG-induced lipotoxicity (rate of cell death) (J774.2 macrophages [1]; 0.1% LE): did not have any protective effect or even enhanced the rate of cell death

CCCCS(=N)(=O)CCC(N)C(=O)O (stereo not drawn) [BSO, buthionine sulfoximine]
GSH (rat isolated hepatocytes [2]; cells treated with BSO): decreased | GSH (rat isolated hepatocytes [2]; [10]): 2.2 ± 0.4 nmol/mg protein | nitrite levels (rat isolated hepatocytes [3]; cells treated with BSO): decreased | Nitrite (rat isolated hepatocytes [3]; [10]): 2.3 ± 0.3^c μmol/106 cells

C[C@@H]1C[C@@H]([C@H](O)CC2CC(=O)NC(=O)C2)C(=O)[C@@H](C)C1 [CH, cycloheximide]
ROS production, CH treatment alone (J774.2 macrophages [4]; CH 0.1 AM (FIG. 6)): decreased ROS production | caspase-3 activity (caspase-3): increased caspase-3 activity | effect of protein-synthesis inhibition on TG cell-death effect (J774.2 macrophages [1]; CH 0.1 AM then TG, 48 h (FIG. 6B)): does not prevent the cell-death effect of TG

N#CC(C#N)=NNc1ccc(OC(F)(F)F)cc1 [FCCP]
ROS production in TG-treated cells (J774.2 macrophages [4]): decreased cellular ROS production but not as effectively as rotenone

CC(=O)N[C@@H](CS)C(=O)O [NAC, N-acetyl-L-cysteine]
TG induced ROS production (J774.2 macrophages [4]; 0.1% LE, NAC 0.5 mM (FIG. 7A)): suppressed | effect on LE-induced reduction of iNOS protein levels (iNOS [5]): attenuate the LE-induced reduction | protection against TG-induced cell death (J774.2 macrophages [1]; 0.1% LE, NAC 0.5 mM (FIG. 7B)): protected the cells against TG-induced cell death | effect on LE-induced reduction of eNOS protein levels (eNOS [6]): attenuate the LE-induced reduction | effect on LE-induced reduction of iNOS mRNA transcription (iNOS [7]): attenuate the LE-induced reduction | effect on LE inhibition of nitrite levels (rat isolated hepatocytes [3]): increased nitrite levels compared with controls; also recorded: Inhibition of nitrite production was abolished | effect on LE-induced reduction of eNOS mRNA transcription (eNOS [8]): attenuate the LE-induced reduction

CC(=O)N[C@H](C(=O)O)C(C)(C)SN=O [SNAP, S-nitroso-N-acetyl-penicillamine]
effect on ROS levels (rat isolated hepatocytes [9]; SNAP in culture medium 48 h, presence or absence of LE): had no effect on ROS levels | ROS (DCF fluorescence) (rat isolated hepatocytes [9]; with or without 0.1% LE and SNAP, 48 h (Table 4)): SNAP 133 AU

CC(C)(C)OO [TBH, tert-butyl hydroperoxide]
cell viability after 48 h of exposure (J774.2 macrophages [1]; TBH 12 AM or LE 0.1%, 48 h (FIG. 5)): No loss in viability

Cc1c(C)c2c(c(C)c1O)CC[C@@](C)(CCC[C@H](C)CCC[C@H](C)CCCC(C)C)O2 [atocopherol, a-tocopherol]
protection against TG-induced lipotoxicity (rate of cell death) (J774.2 macrophages [1]; 0.1% LE): did not have any protective effect or even enhanced the rate of cell death

CC1=C(/C=C/C(C)=C/C=C/C(C)=C/C=C/C=C(C)/C=C/C=C(C)/C=C/C2=C(C)CCCC2(C)C)C(C)(C)CCC1 [h-carotene]
protection against TG-induced lipotoxicity (rate of cell death) (J774.2 macrophages [1]; 0.1% LE): did not have any protective effect or even enhanced the rate of cell death

CC(C)=CCC/C(C)=C/C=C/C(C)=C/C=C/C(C)=C/C=C/C=C(C)/C=C/C=C(C)/C=C/C=C(\C)CCC=C(C)C [lycopene]
protection against TG-induced lipotoxicity (rate of cell death) (J774.2 macrophages [1]; 0.1% LE): did not have any protective effect or even enhanced the rate of cell death

O=c1c(O)c(-c2ccc(O)c(O)c2)oc2cc(O)cc(O)c12 [quercetin]
protection against TG-induced lipotoxicity (rate of cell death) (J774.2 macrophages [1]; 0.1% LE): did not have any protective effect or even enhanced the rate of cell death

Oc1ccc(C=Cc2cc(O)cc(O)c2)cc1 [resveratrol]
protection against TG-induced lipotoxicity (rate of cell death) (J774.2 macrophages [1]; 0.1% LE): significantly decreased the rate of cell death | effect on LE inhibition of nitrite levels (rat isolated hepatocytes [3]): partially prevented the reduction in nitrite synthesis

C=C(C)[C@H]1Cc2c(ccc3c2O[C@@H]2COc4cc(OC)c(OC)cc4[C@@H]2C3=O)O1 [rotenone]
ROS production in TG-treated cells (J774.2 macrophages [4]): significantly decreased ROS production | Nitrite (rat isolated hepatocytes [3]; [11]): 2.0 ± 0.2^c μmol/106 cells | intracellular ROS levels (rat isolated hepatocytes [9]; incubation with rotenone): increased intracellular ROS levels | ROS (DCF fluorescence) (rat isolated hepatocytes [9]; [11]): 530 ± 44^a AU

TNF-α
Nitrite (rat isolated hepatocytes [3]; TNF-α (100 mU) 3 h, with or without 48 h preincubation with 0.1% LE): 2.1 ± 0.1 μmol/106 cells | Nitrite (rat isolated hepatocytes [3]; TNF-α (100 mU) 6 h, with or without 48 h preincubation with 0.1% LE): 2.1 ± 0.2 μmol/106 cells | Nitrite (rat isolated hepatocytes [3]; TNF-α (100 mU) 9 h, with or without 48 h preincubation with 0.1% LE): 4.3 ± 0.2 μmol/106 cells | Nitrite (rat isolated hepatocytes [3]; TNF-α (100 mU) 12 h, with or without 48 h preincubation with 0.1% LE): 6.5 ± 0.2 μmol/106 cells
